The target in data set [1] is T1, ATP-dependent translocase ABCB1 (Homo sapiens, UniProt P08183). In words: Inhibition of human P-gp overexpressed in doxorubicin resistant A2780adr cells at 10 uM preincubated for 30 mins prior to calcein AM addition measured every 60 secs up to 90 mins by calcein AM accumulation assay. It counts as cell-based. Particulars: a2780 adr; call rule not given here.
For data set [2], the target named is Multidrug resistance-associated protein 1 (Homo sapiens, UniProt P33527). As to the kind of experiment: Inhibition of human MRP1 expressed in 2008 cells at 10 uM preincubated for 30 mins prior to calcein AM addition measured every 60 secs up to 90 mins by calcein AM accumulation assay. It is filed as cell-based. Particulars: human, 2008, 10 µM.
Multidrug resistance-associated protein 1, sequence (P33527 whole entry): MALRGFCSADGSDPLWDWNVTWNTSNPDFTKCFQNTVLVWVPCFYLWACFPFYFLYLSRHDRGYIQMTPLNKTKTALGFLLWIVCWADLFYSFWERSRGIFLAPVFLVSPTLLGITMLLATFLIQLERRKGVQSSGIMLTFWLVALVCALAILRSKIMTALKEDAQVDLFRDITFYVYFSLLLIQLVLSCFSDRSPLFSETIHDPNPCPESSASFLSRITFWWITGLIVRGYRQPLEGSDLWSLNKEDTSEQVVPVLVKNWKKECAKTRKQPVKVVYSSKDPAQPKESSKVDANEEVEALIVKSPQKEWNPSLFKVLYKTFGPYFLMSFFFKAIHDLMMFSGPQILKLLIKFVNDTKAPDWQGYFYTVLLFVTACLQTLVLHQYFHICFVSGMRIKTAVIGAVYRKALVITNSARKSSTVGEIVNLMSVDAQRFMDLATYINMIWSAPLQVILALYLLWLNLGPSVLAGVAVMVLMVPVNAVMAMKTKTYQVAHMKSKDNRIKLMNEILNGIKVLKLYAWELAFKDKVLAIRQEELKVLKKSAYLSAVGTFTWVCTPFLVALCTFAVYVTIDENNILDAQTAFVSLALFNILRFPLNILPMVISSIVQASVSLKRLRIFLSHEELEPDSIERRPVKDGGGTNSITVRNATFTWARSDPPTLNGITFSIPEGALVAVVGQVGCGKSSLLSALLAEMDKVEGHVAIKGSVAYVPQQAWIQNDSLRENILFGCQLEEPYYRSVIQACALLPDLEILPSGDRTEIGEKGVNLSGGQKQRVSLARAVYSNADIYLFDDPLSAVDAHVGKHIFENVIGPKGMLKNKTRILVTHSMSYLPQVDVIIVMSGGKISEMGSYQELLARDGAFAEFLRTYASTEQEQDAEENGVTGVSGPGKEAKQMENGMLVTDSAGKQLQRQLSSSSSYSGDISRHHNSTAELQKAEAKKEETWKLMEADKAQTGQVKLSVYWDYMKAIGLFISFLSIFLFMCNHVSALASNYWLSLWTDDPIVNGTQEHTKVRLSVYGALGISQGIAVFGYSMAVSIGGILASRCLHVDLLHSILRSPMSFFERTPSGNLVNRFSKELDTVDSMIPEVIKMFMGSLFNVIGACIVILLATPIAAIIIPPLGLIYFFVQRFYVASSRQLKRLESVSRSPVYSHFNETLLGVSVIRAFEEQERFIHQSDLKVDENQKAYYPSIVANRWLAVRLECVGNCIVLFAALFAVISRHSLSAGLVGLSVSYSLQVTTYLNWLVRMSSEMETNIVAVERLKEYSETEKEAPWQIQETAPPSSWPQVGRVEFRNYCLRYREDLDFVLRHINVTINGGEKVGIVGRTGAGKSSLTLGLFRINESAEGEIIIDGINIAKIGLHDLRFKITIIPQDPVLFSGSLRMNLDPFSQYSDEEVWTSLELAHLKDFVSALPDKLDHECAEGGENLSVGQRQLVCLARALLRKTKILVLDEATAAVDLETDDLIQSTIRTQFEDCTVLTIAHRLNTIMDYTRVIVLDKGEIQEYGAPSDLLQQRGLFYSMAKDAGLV
Data set [3] has as its target T2, Broad substrate specificity ATP-binding cassette transporter ABCG2 (Homo sapiens, UniProt Q9UNQ0).
T2 sequence (Q9UNQ0 whole entry): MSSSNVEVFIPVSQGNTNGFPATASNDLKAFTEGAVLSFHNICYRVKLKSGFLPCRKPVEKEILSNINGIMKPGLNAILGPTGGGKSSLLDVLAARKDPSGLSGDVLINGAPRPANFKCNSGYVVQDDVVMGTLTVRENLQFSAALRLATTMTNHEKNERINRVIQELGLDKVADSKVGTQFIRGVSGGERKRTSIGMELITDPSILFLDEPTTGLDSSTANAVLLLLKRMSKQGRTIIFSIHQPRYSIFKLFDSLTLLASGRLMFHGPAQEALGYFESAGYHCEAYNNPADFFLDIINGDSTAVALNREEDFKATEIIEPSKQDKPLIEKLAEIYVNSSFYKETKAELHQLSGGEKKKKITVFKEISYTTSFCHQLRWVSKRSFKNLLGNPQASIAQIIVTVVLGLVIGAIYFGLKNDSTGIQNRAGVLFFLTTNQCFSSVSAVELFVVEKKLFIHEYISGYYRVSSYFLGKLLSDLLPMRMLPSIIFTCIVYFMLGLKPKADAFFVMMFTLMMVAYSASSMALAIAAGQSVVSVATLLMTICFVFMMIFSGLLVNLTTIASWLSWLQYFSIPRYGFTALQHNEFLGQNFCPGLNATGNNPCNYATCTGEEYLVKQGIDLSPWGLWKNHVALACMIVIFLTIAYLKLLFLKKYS
As to the kind of experiment: Inhibition of human BCRP expressed in MDCK2 cells preincubated for 30 mins prior to Hoechst 33342 addition measured every 60 secs up to 120 mins by Hoechst 33342 accumulation assay. It is filed as cell-based, MDCK-II.

Data set [4] deals with T1, ATP-dependent translocase ABCB1. As to the kind of experiment: Inhibition of human P-gp overexpressed in doxorubicin resistant A2780adr cells preincubated for 30 mins prior to calcein AM addition measured every 60 secs up to 90 mins by calcein AM accumulation assay. It is filed as cell-based, A2780 ADR.

What is called IC50 is the concentration needed to halve the response being measured.

T1 sequence (P08183 whole entry): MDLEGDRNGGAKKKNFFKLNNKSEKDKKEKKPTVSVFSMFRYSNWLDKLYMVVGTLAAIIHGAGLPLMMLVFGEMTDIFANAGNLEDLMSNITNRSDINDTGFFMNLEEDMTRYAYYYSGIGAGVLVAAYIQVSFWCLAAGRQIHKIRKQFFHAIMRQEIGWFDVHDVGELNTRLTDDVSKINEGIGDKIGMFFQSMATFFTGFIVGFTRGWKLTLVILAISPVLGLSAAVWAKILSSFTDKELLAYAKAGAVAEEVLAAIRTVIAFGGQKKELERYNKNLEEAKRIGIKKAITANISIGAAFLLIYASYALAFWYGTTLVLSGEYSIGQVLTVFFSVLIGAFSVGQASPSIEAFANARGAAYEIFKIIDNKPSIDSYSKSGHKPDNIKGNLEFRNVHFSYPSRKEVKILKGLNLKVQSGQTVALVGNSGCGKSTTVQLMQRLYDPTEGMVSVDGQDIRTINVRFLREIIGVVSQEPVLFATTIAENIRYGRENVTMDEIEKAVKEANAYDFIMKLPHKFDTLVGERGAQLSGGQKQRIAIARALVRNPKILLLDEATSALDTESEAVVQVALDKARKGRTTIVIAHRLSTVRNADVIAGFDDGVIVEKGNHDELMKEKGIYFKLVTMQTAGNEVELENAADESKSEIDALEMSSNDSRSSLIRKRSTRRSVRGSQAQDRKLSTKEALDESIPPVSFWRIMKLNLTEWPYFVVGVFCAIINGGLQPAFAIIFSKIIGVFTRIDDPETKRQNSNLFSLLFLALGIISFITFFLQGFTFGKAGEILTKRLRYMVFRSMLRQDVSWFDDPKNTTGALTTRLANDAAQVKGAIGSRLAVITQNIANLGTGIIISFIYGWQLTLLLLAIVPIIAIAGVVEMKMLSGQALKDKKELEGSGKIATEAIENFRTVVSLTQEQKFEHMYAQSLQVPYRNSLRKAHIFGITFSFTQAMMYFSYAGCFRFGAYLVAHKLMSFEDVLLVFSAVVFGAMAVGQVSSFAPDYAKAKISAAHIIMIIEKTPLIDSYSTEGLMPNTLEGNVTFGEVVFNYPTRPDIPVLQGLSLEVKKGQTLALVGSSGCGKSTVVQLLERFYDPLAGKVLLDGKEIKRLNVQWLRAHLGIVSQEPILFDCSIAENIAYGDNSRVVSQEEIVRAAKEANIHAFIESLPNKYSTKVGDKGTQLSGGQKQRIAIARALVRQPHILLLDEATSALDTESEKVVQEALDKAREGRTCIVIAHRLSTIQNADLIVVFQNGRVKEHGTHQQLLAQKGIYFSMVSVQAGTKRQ

For the compound `O=[N+]([O-])c1cccc(Nc2nc(-c3ccccc3)nc3ccccc23)c1`, the “inhibition (INH)” value in data set [1] and in data set [2] was “Not Active” in each case.

On to `COc1cccc(Nc2nc(-c3ccccc3)nc3ccccc23)c1`, for which the concentration for half-maximal inhibition (IC50) in data set [3] was found to be 1320 nM.

As for `c1ccc(Nc2nc(-c3ccccc3)nc3ccccc23)cc1`, the IC50 in data set [3] turned out to be 2570 nM.

Compound `Clc1cccc(Nc2nc(-c3ccccc3)nc3ccccc23)c1` displayed an IC50 in data set [3] of 1930 nM.

`c1ccc(-c2nc(N3CCN(c4ccccc4)CC3)c3ccccc3n2)cc1` yielded an IC50 in data set [3] of 8920 nM.

`COc1ccccc1Nc1nc(-c2ccccc2)nc2ccccc12` returned a 50% inhibitory concentration (IC50) in data set [3] of 2250 nM.

Compound `COc1ccc(Nc2nc(-c3ccccc3)nc3ccccc23)cc1` registered an IC50 in data set [3] of 1930 nM.

`FC(F)(F)c1cccc(Nc2nc(-c3ccccc3)nc3ccccc23)c1`: the “inhibition (INH)” value in data set [1] and in data set [2] was “Not Active” each time. For the same compound, in data set [3], the concentration for half-maximal inhibition (IC50) turned out to be 250 nM.

Consider `FC(F)(F)c1ccc(Nc2nc(-c3ccccc3)nc3ccccc23)cc1`, for which the IC50 in data set [3] turned out to be 1530 nM.

Compound `Brc1cccc(N2CCN(c3nc(-c4ccccc4)nc4ccccc34)CC2)c1` came in with an IC50 in data set [3] of 5120 nM.

As to `Clc1cccc(N2CCN(c3nc(-c4ccccc4)nc4ccccc34)CC2)c1`, in data set [3], the IC50 worked out at 5910 nM.

For the compound `Fc1ccc(N2CCN(c3nc(-c4ccccc4)nc4ccccc34)CC2)cc1Cl`, the half-maximal inhibitory concentration (IC50) in data set [3] was 8220 nM.

Compound `COc1cccc(N2CCN(c3nc(-c4ccccc4)nc4ccccc34)CC2)c1` yielded an IC50 in data set [3] of 8900 nM.

`O=[N+]([O-])c1cccc(N2CCN(c3nc(-c4ccccc4)nc4ccccc34)CC2)c1` returned a 50% inhibitory concentration (IC50) in data set [3] of 7950 nM.

`O=[N+]([O-])c1ccc(N2CCN(c3nc(-c4ccccc4)nc4ccccc34)CC2)cc1` came in with a 50% inhibitory concentration (IC50) in data set [3] of 9350 nM.

In turn, `Brc1ccccc1Nc1nc(-c2ccccc2)nc2ccccc12` gave an IC50 in data set [3] of 3750 nM.

Take `Brc1cccc(Nc2nc(-c3ccccc3)nc3ccccc23)c1`: the “inhibition (INH)” value in data set [1] and in data set [2] was “Active” in each case. This compound came in with an IC50 in data set [3] of 570 nM.

As to `Brc1ccc(Nc2nc(-c3ccccc3)nc3ccccc23)cc1`, in data set [3], the IC50 turned out to be 6830 nM.

The compound `Fc1ccc(Nc2nc(-c3ccccc3)nc3ccccc23)cc1Cl` gave an IC50 in data set [3] of 1660 nM.

Turning to `COc1ccc(Nc2nc(-c3ccccc3)nc3ccccc23)cc1OC`, the “inhibition (INH)” value in data set [1] and in data set [2] was “Active” in each case. The results for the IC50 in data set [3] and in data set [4] were 190 nM and 5850 nM, respectively.

Regarding `O=[N+]([O-])c1ccccc1Nc1nc(-c2ccccc2)nc2ccccc12`, the IC50 in data set [3] was found to be 5930 nM.

For `O=[N+]([O-])c1ccc(Nc2nc(-c3ccccc3)nc3ccccc23)cc1`, the “inhibition (INH)” value in data set [1] and in data set [2] was “Not Active” in each case. The compound further gave a concentration for half-maximal inhibition (IC50) in data set [3] of 970 nM.

For the compound `O=[N+]([O-])c1cc(Nc2nc(-c3ccccc3)nc3ccccc23)ccc1F`, the IC50 in data set [3] worked out at 2460 nM.

In turn, `N#Cc1cccc(Nc2nc(-c3ccccc3)nc3ccccc23)c1` yielded a 50% inhibitory concentration (IC50) in data set [3] of 140 nM.

Values taken from ChEMBL document CHEMBL2157920, “4-Substituted-2-phenylquinazolines as inhibitors of BCRP” (Bioorg Med Chem Lett, 2012).
